Legend:
[1] = NMR-based stability assay in cell culture medium; type: physicochemical; conditions: ~8 mM in DMSO-d6 diluted 1:3 with DMEM + 10% FCS; NMR at 37°C for 16 hours; compared with Example Compound 1; Figures 1-3
[2] = biological target: KLK6 (Homo sapiens, UniProt Q92876); assay: Biochemical inhibition assay, fluorogenic substrate FSR-AMC; conditions: read-out: KLK6 IC50; KLK6 5 nM (produced in insect cells); 30 min incubation with inhibitor; FSR-AMC 20 µM; Tris pH 7.5
Method: (§1) In a 384 well plate, 5 µL of eleven concentrations of inhibitor in 8% DMSO (serial dilution 2:1) and a blank were incubated with an equal amount of enzyme (KLK6, Thrombin, Trypsin or Factor Xa) diluted in 50 mM Tris pH 7.5, 150 mM NaCl, 1 mM EDTA, 0.05% Tween20 assay buffer for 30 minutes. […] Inhibition of the enzyme as a function of the inhibitor concentration was used to generate dose response curves, which allowed estimating IC50 values, according to the following equation in GraphPad Prism: y = ymin + (ymax−ymin)/(1+10^(((LogIC50−x)*HillSlope))) [formula]
(§2) Assay final concentrations: • KLK6: 5 nM • Trypsin: 0.88 ng/mL • Thrombin: 9.8·10^-5 NIH unit/mL • Factor Xa: 4 nM • FSR-AMC: 20 µM

[3] = biological target: Factor Xa (Homo sapiens, UniProt P00742); assay: as above; conditions: read-out: Factor Xa IC50; Factor Xa 4 nM; 30 min incubation with inhibitor; FSR-AMC 20 µM; Tris pH 7.5
Factor Xa, sequence (P00742 235-488 limits assumed): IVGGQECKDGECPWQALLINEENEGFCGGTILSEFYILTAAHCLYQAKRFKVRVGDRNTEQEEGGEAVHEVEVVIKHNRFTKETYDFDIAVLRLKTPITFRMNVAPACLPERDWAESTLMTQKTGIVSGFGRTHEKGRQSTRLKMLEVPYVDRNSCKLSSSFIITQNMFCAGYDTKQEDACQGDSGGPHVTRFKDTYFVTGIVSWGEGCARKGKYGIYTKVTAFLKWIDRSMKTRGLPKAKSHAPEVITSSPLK
Factor Xa, sequence (P00742 41-179 partner limits assumed): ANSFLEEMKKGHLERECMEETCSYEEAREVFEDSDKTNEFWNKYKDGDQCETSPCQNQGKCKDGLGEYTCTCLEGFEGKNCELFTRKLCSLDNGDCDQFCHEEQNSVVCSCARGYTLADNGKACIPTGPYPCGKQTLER
Method: as §1, §2

[4] = biological target: Thrombin (Homo sapiens, UniProt P00734); assay: as above; conditions: read-out: Thrombin IC50; Thrombin 9.8·10^-5 NIH unit/mL; 30 min incubation with inhibitor; FSR-AMC 20 µM; Tris pH 7.5
Method: as §1, §2

[5] = biological target: Trypsin (Homo sapiens, UniProt P07477); assay: as above; conditions: read-out: Trypsin IC50; Trypsin 0.88 ng/mL; 30 min incubation with inhibitor; FSR-AMC 20 µM; Tris pH 7.5
Method: as §1, §2

Compound	stability in cell culture medium (ester hydrolysis) [1]	IC50 [2] [µM]	IC50 [3] [µM]	IC50 [4] [µM]	IC50 [5] [µM]
Cc1nn(-c2ccccc2)c(C)c1NC(=O)COC(=O)Cc1c(C)[nH]c2ccccc12 [Example Compound 38, 2-((3,5-dimethyl-1-phenyl-1H-pyrazol-4-yl)amino)-2-oxoethyl 2-(2-methyl-1H-indol-3-yl)acetate]	totally enhanced	–	–	–	–
Cc1nn(-c2ccccc2)c(C)c1NC(=O)COC(=O)C(C)c1c(C)[nH]c2ccccc12 (stereo not shown) [Example Compound 81, 2-((3,5-dimethyl-1-phenyl-1H-pyrazol-4-yl)amino)-2-oxoethyl 2-(2-methyl-1H-indol-3-yl)propanoate]	further stabilizing properties	–	–	–	–
Cc1cc2ccccc2n1CC(=O)OCC(=O)Nc1ccccc1 [compound 24]	–	9.96	> 50	> 50	> 50
Cc1nn(-c2ccccc2)c(C)c1NC(=O)COC(=O)Cn1ccc2c(F)cccc21 [compound 25]	–	30.6	> 50	> 50	> 50
Cc1nn(-c2ccccc2)c(C)c1NC(=O)COC(=O)Cn1ccc2cc(Cl)ccc21 [compound 28]	–	26	> 50	> 50	> 50
Cc1nn(-c2ccccc2)c(C)c1NC(=O)COC(=O)Cn1ccc2cccc(Cl)c21 [compound 31]	–	1.2	> 50	> 50	> 50
Cc1nn(-c2ccccc2)c(C)c1NC(=O)COC(=O)Cn1c(C(C)C)cc2ccccc21 [compound 32]	–	3.36	> 50	> 50	> 50
Cc1nn(-c2ccccc2)c(C)c1NC(=O)COC(=O)Cn1c(C)cc2cccc(Cl)c21 [compound 33]	–	6.49	> 50	> 50	> 50
Cc1nn(-c2ccccc2)c(C)c1NC(=O)COC(=O)C(C)n1c(C)cc2ccccc21 (stereo not shown) [compound 34]	–	11.3	> 50	> 50	> 50
Cc1cc2ccccc2n1CC(=O)OCC(=O)Nc1ccc(N2CCOCC2)cc1 [compound 35]	–	1.41	> 50	> 50	> 50
CCc1cc2ccccc2n1CC(=O)OCC(=O)Nc1c(C)nn(-c2ccccc2)c1C [compound 36]	–	0.433	> 50	> 50	29.3
Cc1[nH]c2ccccc2c1CC(=O)OCC(=O)Nc1cnn(-c2ccccc2)c1 [compound 39]	–	6.98	> 50	> 50	> 50
Cc1nn(-c2ccccc2)c(C)c1NC(=O)COC(=O)Cc1coc2ccccc12 [compound 41]	–	31.3	> 50	> 50	> 50
CC(=O)Nc1cccc(CC(=O)OCC(=O)Nc2c(C)nn(-c3ccccc3)c2C)c1 [compound 47]	–	31.4	> 200	> 200	> 200
Cc1ccccc1CC(=O)OCC(=O)Nc1c(C)nn(-c2ccccc2)c1C [compound 50]	–	2.16	> 200	> 200	> 200
Cc1nn(-c2ccccc2)c(C)c1NC(=O)COC(=O)Cc1ccccc1I [compound 51]	–	0.261	> 200	> 200	> 200
COc1ccc(CC(=O)OCC(=O)Nc2c(C)nn(-c3ccccc3)c2C)cc1 [compound 52]	–	32.8	> 200	> 200	> 200
COc1cccc(CC(=O)OCC(=O)Nc2c(C)nn(-c3ccccc3)c2C)c1 [compound 53]	–	30	> 200	> 200	> 200
COc1ccccc1CC(=O)OCC(=O)Nc1c(C)nn(-c2ccccc2)c1C [compound 54]	–	4.85	> 200	> 200	> 200
Cc1nn(-c2ccccc2)c(C)c1NC(=O)COC(=O)Cc1cccc(N)c1 [compound 55]	–	17	> 200	> 200	> 200
Cc1nn(-c2ccccc2)c(C)c1NC(=O)COC(=O)Cc1cccc(C#N)c1 [compound 56]	–	16.1	> 200	> 200	> 200
Cc1nn(-c2ccccc2)c(C)c1NC(=O)COC(=O)Cc1ccccn1 [compound 58]	–	8.86	> 200	> 200	> 200
Cc1nn(-c2ccccc2)c(C)c1NC(=O)COC(=O)Cc1cccs1 [compound 59]	–	6.28	> 200	> 200	> 200

Compound	stability in cell culture medium (ester hydrolysis) [1]	IC50 [2] [µM]	IC50 [3] [µM]	IC50 [4] [µM]	IC50 [5] [µM]
Cc1nn(-c2ccccc2)c(C)c1NC(=O)COC(=O)Cc1ccc(Cl)s1 [compound 60]	–	32.6	> 200	> 200	> 200
Cc1nn(-c2ccccc2)c(C)c1NC(=O)COC(=O)Cc1cc(Cl)sc1Cl [compound 61]	–	2.33	> 200	> 200	> 200
Cc1nn(-c2ccccc2)c(C)c1NC(=O)COC(=O)Cc1ccccc1C(F)(F)F [compound 63]	–	2.35	> 200	> 200	> 200
Cc1nn(-c2ccccc2)c(C)c1NC(=O)COC(=O)Cc1cccc(F)c1 [compound 64]	–	22	> 200	> 200	> 200
C=CCOc1ccccc1NC(=O)COC(=O)Cc1ccccc1I [compound 65]	–	38.7	> 200	> 200	> 200
Cc1nn(-c2ccccc2)c(C)c1NC(=O)COC(=O)Cc1ccsc1Cl [compound 66]	–	7.4	> 200	> 200	> 200
Cc1[nH]c2ccccc2c1CC(=O)OCC(=O)NC(C)(C)C [compound 67]	–	166	> 200	> 200	> 200
Cc1nn(-c2ccccc2)c(C)c1NC(=O)COC(=O)Cc1ccco1 [compound 68]	–	46	> 200	> 200	> 200
Cc1nn(-c2ccccc2)c(C)c1NC(=O)COC(=O)Cc1ccccc1OCc1ccccc1 [compound 69]	–	57.4	> 200	> 200	> 200
Cc1[nH]c2ccccc2c1CC(=O)OCC(=O)NC1CCCC1 [compound 71]	–	78.7	> 200	> 200	> 200
Cc1[nH]c2ccccc2c1CC(=O)OCC(=O)Nc1ccc(F)cn1 [compound 72]	–	12.3	65.9	60.3	50.4
Cc1[nH]c2ccccc2c1CC(=O)OCC(=O)Nc1ccccc1Cl [compound 73]	–	1.46	34.7	> 200	114
Cc1ccc(NC(=O)COC(=O)Cc2c(C)[nH]c3ccccc23)cc1 [compound 74]	–	4.57	> 200	> 200	> 200
Cc1cccc(NC(=O)COC(=O)Cc2c(C)[nH]c3ccccc23)c1 [compound 75]	–	5.38	> 200	> 200	> 200
COc1ccccc1NC(=O)COC(=O)Cc1c(C)[nH]c2ccccc12 [compound 77]	–	1.86	21.1	> 200	28.7
Cc1ccccc1NC(=O)COC(=O)Cc1c(C)[nH]c2ccccc12 [compound 78]	–	4.73	> 200	> 200	> 200
COc1cccc(NC(=O)COC(=O)Cc2c(C)[nH]c3ccccc23)c1 [compound 79]	–	6.05	> 200	> 200	> 200
COc1ccc(NC(=O)COC(=O)Cc2c(C)[nH]c3ccccc23)cc1 [compound 80]	–	6.55	> 200	> 200	> 200
Cc1nn(-c2ccccc2)c(C)c1NC(=O)COC(=O)Cc1ccccc1N=[N+]=[N-] [compound 82]	–	27.3	> 200	> 200	> 200
Cc1nn(-c2ccccc2)c(C)c1NC(=O)COC(=O)C(C)c1c[nH]c2ccccc12 (stereo not shown) [compound 83]	–	14.3	> 200	> 200	> 200
Cc1[nH]c2ccccc2c1CC(=O)OCC(=O)Nc1cccc(C(N)=O)c1 [compound 84]	–	3.27	67.5	90.6	82.1
Cc1[nH]c2ccccc2c1CC(=O)OCC(=O)NCc1ncc[nH]1 [compound 85]	–	172	157	> 200	> 200
Cc1nn(-c2ccccc2)c(C)c1N(C)C(=O)COC(=O)Cc1c(C)[nH]c2ccccc12 [compound 88]	–	2.88	18.1	14.1	9.1
